# Results published in paper PMC4914113, “Another look at the mechanism involving trimeric dUTPases in Staphylococcus aureus pathogenicity island induction involves novel players in the party” (Nucleic Acids Research, 2016).
# Tests used:
# [1] = target: Dut80α^G164S (Staphylococcus aureus phage 80α); assay: crystal structure; Dut80α^WT with dUMP (5CCO) and Dut80α^G164S with dUPNPP-Mg (5CCT); space group P2_(1)3, one Dut molecule in the final model; trimers shown in Figure 3
# [2] = target: Dut80α^WT, wild-type dUTPase of phage 80α (Staphylococcus aureus phage 80α); assay: as above
# Dut80α [3] = target: T1, Dut80α (Dubowvirus dv80alpha, UniProt A4ZF98); assay: biolayer interferometry, effect on Stl binding; conditions: 0.5 mM dUPNPP; SaPIbov1 Stl analyte; pH 7.5, 5 mM MgCl2; competes with Stl
# T1 construct: His6-tagged from pET-28a, E. coli BL21(DE3); homotrimer; models cover residues 2-168 (dUMP) and 2-170 (G164S)
# Dutϕ11 = target: T2, Dutϕ11 (Staphylococcus phage phi 11, UniProt Q8SDV3); assay: biolayer interferometry, effect on Stl binding; conditions: 0.5 mM dUPNPP; SaPIbov1 Stl analyte; pH 7.5, 5 mM MgCl2; competes with Stl
# T2 construct: His6-tagged from pET-28a, E. coli BL21(DE3); trimeric Dut
# Dut80α [4] = target: T1, Dut80α; assay: X-ray crystallography; format: binding; conditions: 2.33 Å; no nucleotide added to crystallisation; active site
compound,measurement,setting,value
Dut80α^G164S (enzyme),stoichiometry N,[1],3
"Dut80α^WT, wild-type dUTPase of phage 80α (enzyme)",stoichiometry N,[2],3
"O=c1ccn([C@H]2C[C@H](O)[C@@H](COP(=O)(O)NP(=O)(O)OP(=O)(O)O)O2)c(=O)[nH]1 [dUPNPP, 2-Deoxyuridine-5-[(α,β)-imido]triphosphate]","biolayer interferometry, effect on Stl binding",Dut80α [3],presence of the dUPNPP severely affects the formation of the Stl:Dut80α complex
same,"biolayer interferometry, effect on Stl binding",Dutϕ11,dUPNPP decreased the affinity of the Stl:Dut80α complex by about one order
O=c1ccn([C@H]2C[C@H](O)[C@@H](COP(=O)(O)O)O2)c(=O)[nH]1 [dUMP],X-ray crystallography,Dut80α [4],structure of the Dut80α^WT bound to the dUMP showed that motif V was ordered
